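Five concentrations, 48 hours, 96-well plates. TGI denotes the concentration required for complete inhibition of growth.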
What was measured:
Assay in all cases: inhibition of tumour cell growth, NCI panel, 48 h
HL-60(TB) leukemia = system: HL-60(TB) leukemia
COLO 205 colon = system: COLO 205 colon
OVCAR-5 ovarian = system: OVCAR-5 ovarian
HOP-92 NSCLC = system: HOP-92 NSCLC
U251 CNS = system: U251 CNS
HCT-15 colon = system: HCT-15 colon
HOP-62 NSCLC = system: HOP-62 NSCLC
SF-295 CNS = system: SF-295 CNS
OVCAR-4 ovarian = system: OVCAR-4 ovarian
LOX IMVI melanoma = system: LOX IMVI melanoma
KM12 colon = system: KM12 colon
NCI-H460 lung = system: NCI-H460 lung
HCT-116 colon = system: HCT-116 colon
NCI/ADR-RES ovarian = system: NCI/ADR-RES ovarian
SF-539 CNS = system: SF-539 CNS
CCRF-CEM leukemia = system: CCRF-CEM leukemia
SW-620 colon = system: SW-620 colon
OVCAR-8 ovarian = system: OVCAR-8 ovarian
UO-31 renal = system: UO-31 renal
NCI-H226 lung = system: NCI-H226 lung
DU-145 prostate = system: DU-145 prostate
SK-MEL-28 melanoma = system: SK-MEL-28 melanoma
SNB-19 CNS = system: SNB-19 CNS
A549 NSCLC = system: A549 NSCLC
MDA-MB-231 breast = system: MDA-MB-231 breast
MCF7 breast = system: MCF7 breast
UACC-257 melanoma = system: UACC-257 melanoma
786-0 renal = system: 786-0 renal
MOLT-4 leukemia = system: MOLT-4 leukemia
SN12C renal = system: SN12C renal
SK-MEL-5 melanoma = system: SK-MEL-5 melanoma
T-47D breast = system: T-47D breast
HT29 colon = system: HT29 colon
MDA-MB-435 = system: MDA-MB-435
PC-3 prostate = system: PC-3 prostate
TK-10 renal = system: TK-10 renal
OVCAR-3 ovarian = system: OVCAR-3 ovarian
SR leukemia = system: SR leukemia
ACHN renal = system: ACHN renal
IGROV1 ovarian = system: IGROV1 ovarian
BT-549 breast = system: BT-549 breast
RPMI-8226 leukemia = system: RPMI-8226 leukemia
M14 melanoma = system: M14 melanoma
HS 578T breast = system: HS 578T breast
RXF 393 renal = system: RXF 393 renal
CAKI-1 renal = system: CAKI-1 renal
MALME-3M melanoma = system: MALME-3M melanoma
SNB-75 CNS = system: SNB-75 CNS
UACC-62 melanoma = system: UACC-62 melanoma
EKVX NSCLC = system: EKVX NSCLC
SK-MEL-2 melanoma = system: SK-MEL-2 melanoma
SF-268 CNS = system: SF-268 CNS
K-562 leukemia = system: K-562 leukemia
SK-OV-3 ovarian = system: SK-OV-3 ovarian
A498 renal = system: A498 renal

Measured: TGI

Nc1ncnc2ccc(Sc3ccc4ncnc(N)c4c3)cc12
> 100 µM: all assays above

Source: PubChem BioAssay (NCI)
